Test results taken from paper PMC5218480 (PLoS ONE, 2017).

Test system: MV-4-11 cells
Assay: Gene expression microarray analysis (Affymetrix PrimeView) and GSEA
Format: cell-based, human
Parameters: RFU PODN (11730768_x_at) / Fold change /veh PODN (11730768_x_at) / RFU LINC00158 (11744669_a_at) / Fold change /veh LINC00158 (11744669_a_at) / RFU DUSP10 (11751237_a_at) / Fold change /veh DUSP10 (11751237_a_at) / RFU ID3 (11757404_x_at) / Fold change /veh ID3 (11757404_x_at) / RFU PLEKHG5 (11737974_s_at) / Fold change /veh PLEKHG5 (11737974_s_at) / RFU LRRC4B (11730491_at) / Fold change /veh LRRC4B (11730491_at) / RFU GIMAP4 (11747438_a_at) / Fold change /veh GIMAP4 (11747438_a_at) / RFU KRT8 (11758183_x_at) / Fold change /veh KRT8 (11758183_x_at) / RFU CNN1 (11734310_a_at) / Fold change /veh CNN1 (11734310_a_at) / RFU VPS37D (11726825_at) / Fold change /veh VPS37D (11726825_at) / RFU C10orf10 (11716522_x_at) / Fold change /veh C10orf10 (11716522_x_at) / RFU KIR2DL2 /// KIR2DL4 /// KIR2DL5A /// KIR2DL5B /// KIR2DS1 /// KIR2DS2 /// KIR2DS3 /// KIR2DS4 /// KIR3DL3 /// KIR3DL3 /// KIR3DS1 (11738374_at) / Fold change /veh KIR2DL2 /// KIR2DL4 /// KIR2DL5A /// KIR2DL5B /// KIR2DS1 /// KIR2DS2 /// KIR2DS3 /// KIR2DS4 /// KIR3DL3 /// KIR3DL3 /// KIR3DS1 (11738374_at) / RFU C1QL1 (11718748_at) / Fold change /veh C1QL1 (11718748_at) / RFU TMPRSS4 (11747572_a_at) / Fold change /veh TMPRSS4 (11747572_a_at) / RFU HAMP (11756126_x_at) / Fold change /veh HAMP (11756126_x_at) / RFU RNFT2 (11725882_a_at) / Fold change /veh RNFT2 (11725882_a_at) / RFU NR4A2 (11747474_a_at) / Fold change /veh NR4A2 (11747474_a_at) / RFU ABCC12 (11746883_a_at) / Fold change /veh ABCC12 (11746883_a_at) / RFU TMEM136 (11760407_x_at) / Fold change /veh TMEM136 (11760407_x_at) / RFU CLDN22 /// WWC2 (11732394_at) / Fold change /veh CLDN22 /// WWC2 (11732394_at) / RFU HLA-DPB1 (11760878_x_at) / Fold change /veh HLA-DPB1 (11760878_x_at) / RFU SPINT1 (11716480_a_at) / Fold change /veh SPINT1 (11716480_a_at) / RFU GAP43 (11754022_s_at) / Fold change /veh GAP43 (11754022_s_at) / RFU A4GNT (11735810_at) / Fold change /veh A4GNT (11735810_at) / RFU PRB3 (11715151_x_at) / Fold change /veh PRB3 (11715151_x_at) / RFU TUBB4B (11761932_at) / Fold change /veh TUBB4B (11761932_at) / RFU CAPN14 (11732068_a_at) / Fold change /veh CAPN14 (11732068_a_at) / RFU TMCC2 (11721928_a_at) / Fold change /veh TMCC2 (11721928_a_at) / RFU IRGQ (11745062_a_at) / Fold change /veh IRGQ (11745062_a_at) / RFU FAM174B (11720279_a_at) / Fold change /veh FAM174B (11720279_a_at) / RFU TMPRSS4 (11748680_a_at) / Fold change /veh TMPRSS4 (11748680_a_at) / RFU FAM212B (11763350_a_at) / Fold change /veh FAM212B (11763350_a_at) / RFU PLEKHG5 (11743358_a_at) / Fold change /veh PLEKHG5 (11743358_a_at) / RFU ZSCAN30 (11745921_a_at) / Fold change /veh ZSCAN30 (11745921_a_at) / RFU CMKLR1 (11741424_a_at) / Fold change /veh CMKLR1 (11741424_a_at) / RFU LOC101060620 /// MAPK8IP1 (11723275_at) / Fold change /veh LOC101060620 /// MAPK8IP1 (11723275_at) / RFU SPTSSB (11747773_x_at) / Fold change /veh SPTSSB (11747773_x_at) / RFU PRSS12 (11739890_at) / Fold change /veh PRSS12 (11739890_at) / RFU BIN1 (11741810_x_at) / Fold change /veh BIN1 (11741810_x_at) / RFU WNT11 (11732464_a_at) / Fold change /veh WNT11 (11732464_a_at) / RFU C10orf10 (11716521_a_at) / Fold change /veh C10orf10 (11716521_a_at) / RFU C5orf56 (11738089_at) / Fold change /veh C5orf56 (11738089_at) / RFU CYB561 (11721691_x_at) / Fold change /veh CYB561 (11721691_x_at) / RFU ANKRD19P (11752326_a_at) / Fold change /veh ANKRD19P (11752326_a_at) / RFU OR2T12 /// OR2T33 /// OR2T8 (11738714_s_at) / Fold change /veh OR2T12 /// OR2T33 /// OR2T8 (11738714_s_at) / RFU VCAN (11748164_a_at) / Fold change /veh VCAN (11748164_a_at) / RFU JSRP1 (11732532_at) / Fold change /veh JSRP1 (11732532_at) / RFU KRTAP10-11 (11738290_x_at) / Fold change /veh KRTAP10-11 (11738290_x_at) / RFU MYO3A (11730013_a_at) / Fold change /veh MYO3A (11730013_a_at) / RFU EBF3 (11725865_a_at) / Fold change /veh EBF3 (11725865_a_at) / RFU CAMK2N1 (11719241_x_at) / Fold change /veh CAMK2N1 (11719241_x_at) / RFU C5orf56 (11738088_a_at) / Fold change /veh C5orf56 (11738088_a_at) / RFU OLFML3 (11715873_a_at) / Fold change /veh OLFML3 (11715873_a_at) / RFU LOC100653217 /// NTM (11731650_a_at) / Fold change /veh LOC100653217 /// NTM (11731650_a_at) / RFU MAPK11 (11762145_a_at) / Fold change /veh MAPK11 (11762145_a_at) / RFU FIZ1 (11724087_x_at) / Fold change /veh FIZ1 (11724087_x_at) / RFU OASL (11726364_x_at) / Fold change /veh OASL (11726364_x_at) / RFU SOX15 (11748057_x_at) / Fold change /veh SOX15 (11748057_x_at) / RFU CD79A (11719716_a_at) / Fold change /veh CD79A (11719716_a_at) / RFU HIST1H1D (11736915_at) / Fold change /veh HIST1H1D (11736915_at) / RFU CASKIN2 (11723855_a_at) / Fold change /veh CASKIN2 (11723855_a_at) / RFU LOC730098 (11760151_x_at) / Fold change /veh LOC730098 (11760151_x_at) / RFU OR4N2 (11742367_at) / Fold change /veh OR4N2 (11742367_at) / RFU PRRT2 (11749266_a_at) / Fold change /veh PRRT2 (11749266_a_at) / RFU SNX32 (11753110_a_at) / Fold change /veh SNX32 (11753110_a_at) / RFU CDHR5 (11726645_a_at) / Fold change /veh CDHR5 (11726645_a_at) / RFU RCAN1 (11760418_a_at) / Fold change /veh RCAN1 (11760418_a_at) / RFU FAM167A (11723789_a_at) / Fold change /veh FAM167A (11723789_a_at) / RFU FAM26E (11764081_at) / Fold change /veh FAM26E (11764081_at) / RFU ISYNA1 (11749810_s_at) / Fold change /veh ISYNA1 (11749810_s_at) / RFU ACY1 (11761880_at) / Fold change /veh ACY1 (11761880_at) / RFU 11764098_at / Fold change /veh 11764098_at / RFU SAMD14 (11745864_x_at) / Fold change /veh SAMD14 (11745864_x_at) / RFU NPB (11741838_a_at) / Fold change /veh NPB (11741838_a_at) / RFU TMPRSS6 (11731388_a_at) / Fold change /veh TMPRSS6 (11731388_a_at) / RFU KRTAP10-2 (11738614_at) / Fold change /veh KRTAP10-2 (11738614_at) / RFU ARHGAP8 /// PRR5-ARHGAP8 (11727945_x_at) / Fold change /veh ARHGAP8 /// PRR5-ARHGAP8 (11727945_x_at) / RFU KRTAP5-7 /// NADSYN1 (11734609_at) / Fold change /veh KRTAP5-7 /// NADSYN1 (11734609_at) / RFU RASL12 (11751679_a_at) / Fold change /veh RASL12 (11751679_a_at) / RFU CDKN2B (11736163_a_at) / Fold change /veh CDKN2B (11736163_a_at) / RFU PRF1 (11729649_at) / Fold change /veh PRF1 (11729649_at) / RFU, ZNF638 /// ZNF638-IT1 / Fold change vs veh, ZNF638 /// ZNF638-IT1 / RFU, PANK3 / Fold change vs veh, PANK3 / RFU, SH3YL1 / Fold change vs veh, SH3YL1 / RFU, ZEB2 / Fold change vs veh, ZEB2 / RFU, NRIP1 / Fold change vs veh, NRIP1 / RFU, PTTG1IP / Fold change vs veh, PTTG1IP / RFU, CAPN2 / Fold change vs veh, CAPN2 / RFU, MED14 / Fold change vs veh, MED14 / RFU, SNORA58 / Fold change vs veh, SNORA58 / RFU, C1orf63 / Fold change vs veh, C1orf63 / RFU, LRRFIP1 / Fold change vs veh, LRRFIP1 / RFU, NDUFAF7 / Fold change vs veh, NDUFAF7 / RFU, SLC12A2 / Fold change vs veh, SLC12A2 / RFU, IBTK / Fold change vs veh, IBTK / RFU, ESF1 / Fold change vs veh, ESF1 / Fold change vs veh, TMEM50B / RFU, TAOK1 / Fold change vs veh, TAOK1 / RFU, ACBD3 / Fold change vs veh, ACBD3 / RFU, TMA16 / Fold change vs veh, TMA16 / RFU, RWDD3 / Fold change vs veh, RWDD3 / RFU, BCAT1 / Fold change vs veh, BCAT1 / RFU, EDEM3 / Fold change vs veh, EDEM3 / RFU, TMEM33 / Fold change vs veh, TMEM33 / RFU, WDR75 / Fold change vs veh, WDR75 / RFU, AHCTF1 / Fold change vs veh, AHCTF1 / RFU, TFRC / Fold change vs veh, TFRC / RFU, ZDHHC17 / Fold change vs veh, ZDHHC17 / RFU, NOM1 / Fold change vs veh, NOM1 / RFU, ARL8B / Fold change vs veh, ARL8B / RFU, ZBTB11 / Fold change vs veh, ZBTB11 / RFU, TAMM41 / Fold change vs veh, TAMM41 / RFU, KIAA1704 /// LOC100996395 / Fold change vs veh, KIAA1704 /// LOC100996395 / RFU, ING1 / Fold change vs veh, ING1 / RFU, TRMT61B / Fold change vs veh, TRMT61B / RFU, FUBP3 / Fold change vs veh, FUBP3 / RFU, TP53 / Fold change vs veh, TP53 / RFU, TNKS2 / Fold change vs veh, TNKS2 / RFU, ZFP14 / Fold change vs veh, ZFP14 / RFU, ACTR2 / Fold change vs veh, ACTR2 / RFU, PPP3R1 / Fold change vs veh, PPP3R1 / RFU, PIK3R1 / Fold change vs veh, PIK3R1 / RFU, HNRNPA1 / Fold change vs veh, HNRNPA1 / RFU, RNF170 / Fold change vs veh, RNF170 / RFU, ZNF28 / Fold change vs veh, ZNF28 / RFU, RNGTT / Fold change vs veh, RNGTT / RFU, OGT / Fold change vs veh, OGT / RFU, BRD1 / Fold change vs veh, BRD1 / RFU, MARS / Fold change vs veh, MARS / RFU, ZNF655 / Fold change vs veh, ZNF655 / RFU, FAHD1 / Fold change vs veh, FAHD1 / RFU, BDP1 / Fold change vs veh, BDP1 / RFU, LRRCC1 / Fold change vs veh, LRRCC1 / RFU, ARID1A / Fold change vs veh, ARID1A / RFU, ZNF146 / Fold change vs veh, ZNF146 / RFU, ZNF330 / Fold change vs veh, ZNF330 / RFU, GPN3 / Fold change vs veh, GPN3 / RFU, C9orf123 / Fold change vs veh, C9orf123 / RFU, N4BP2L2 / Fold change vs veh, N4BP2L2 / RFU, ARFIP1 / Fold change vs veh, ARFIP1 / RFU, FAM179B / Fold change vs veh, FAM179B / RFU, BCL10 / Fold change vs veh, BCL10 / RFU, UHRF1BP1L / Fold change vs veh, UHRF1BP1L / RFU, BET1 / Fold change vs veh, BET1 / RFU, CNOT2 / Fold change vs veh, CNOT2 / RFU, ZNF268 / Fold change vs veh, ZNF268 / Fold change vs veh, ZNF507 / RFU, DGCR2 / Fold change vs veh, DGCR2 / RFU, WDSUB1 / Fold change vs veh, WDSUB1 / Fold change vs veh, HSP90B1 /// MIR3652 / RFU, ADSS / Fold change vs veh, ADSS / RFU, GK / Fold change vs veh, GK / RFU, ZNF148 / Fold change vs veh, ZNF148 / RFU, TAF9 / Fold change vs veh, TAF9 / RFU, SLC1A5 / Fold change vs veh, SLC1A5 / RFU, SLMO2 / Fold change vs veh, SLMO2 / RFU, ABCC4 / Fold change vs veh, ABCC4 / RFU, LOC101060439 /// RAP1B / Fold change vs veh, LOC101060439 /// RAP1B / RFU, RFX7 / Fold change vs veh, RFX7 / RFU, GTPBP10 / Fold change vs veh, GTPBP10 / RFU, CNEP1R1 / Fold change vs veh, CNEP1R1 / RFU, BIVM-ERCC5 /// ERCC5 / Fold change vs veh, BIVM-ERCC5 /// ERCC5 / RFU, ILF3 / Fold change vs veh, ILF3 / RFU 11762660_at / Fold change /veh 11762660_at / RFU VCAN (11757783_s_at) / Fold change /veh VCAN (11757783_s_at) / RFU DDX43 (11728927_at) / Fold change /veh DDX43 (11728927_at) / RFU KRT8 (11758188_x_at) / Fold change /veh KRT8 (11758188_x_at) / RFU NKD1 (11759106_at) / Fold change /veh NKD1 (11759106_at) / RFU SRD5A1 (11742802_a_at) / Fold change /veh SRD5A1 (11742802_a_at) / RFU TPSAB1 /// TPSB2 (11721975_s_at) / Fold change /veh TPSAB1 /// TPSB2 (11721975_s_at) / RFU GSTM3 (11746129_a_at) / Fold change /veh GSTM3 (11746129_a_at) / RFU IL23R (11737362_x_at) / Fold change /veh IL23R (11737362_x_at) / RFU TMEM51 (11727254_a_at) / Fold change /veh TMEM51 (11727254_a_at) / RFU PIWIL2 (11732686_x_at) / Fold change /veh PIWIL2 (11732686_x_at) / RFU ORM1 (11744905_x_at) / Fold change /veh ORM1 (11744905_x_at) / RFU CCDC152 (11743942_at) / Fold change /veh CCDC152 (11743942_at) / RFU ECM1 (11717891_a_at) / Fold change /veh ECM1 (11717891_a_at) / RFU IL23R (11748794_a_at) / Fold change /veh IL23R (11748794_a_at) / RFU TNFAIP8L3 (11732012_x_at) / Fold change /veh TNFAIP8L3 (11732012_x_at) / RFU MBOAT4 (11741988_at) / Fold change /veh MBOAT4 (11741988_at) / RFU 11764193_at / Fold change /veh 11764193_at / RFU TMEM53 (11763286_at) / Fold change /veh TMEM53 (11763286_at) / RFU MAGEB2 (11727129_at) / Fold change /veh MAGEB2 (11727129_at) / RFU TMEM200A (11744735_a_at) / Fold change /veh TMEM200A (11744735_a_at) / RFU CCDC152 (11751479_a_at) / Fold change /veh CCDC152 (11751479_a_at) / RFU FAM211A (11726209_a_at) / Fold change /veh FAM211A (11726209_a_at) / RFU RGS16 (11746705_a_at) / Fold change /veh RGS16 (11746705_a_at) / RFU VCAN (11755009_s_at) / Fold change /veh VCAN (11755009_s_at) / RFU RHOB (11743442_s_at) / Fold change /veh RHOB (11743442_s_at) / RFU RGS16 (11720943_a_at) / Fold change /veh RGS16 (11720943_a_at) / RFU RGS16 (11720944_at) / Fold change /veh RGS16 (11720944_at) / RFU, VPS4B / Fold change vs veh, VPS4B / RFU, CREB1 / Fold change vs veh, CREB1 / RFU, DNAJC13 / Fold change vs veh, DNAJC13 / RFU, GNAQ / Fold change vs veh, GNAQ / RFU, CDK5R1 / Fold change vs veh, CDK5R1 / RFU, ZRANB3 / Fold change vs veh, ZRANB3 / RFU, CUL4A / Fold change vs veh, CUL4A / RFU, CCNY / Fold change vs veh, CCNY / RFU, UFL1 / Fold change vs veh, UFL1 / RFU, COG3 / Fold change vs veh, COG3 / RFU, DIAPH2 / Fold change vs veh, DIAPH2 / RFU, SKA2 / Fold change vs veh, SKA2 / RFU, AFF3 / Fold change vs veh, AFF3 / RFU, LMF1 / Fold change vs veh, LMF1 / RFU, IPO11 / Fold change vs veh, IPO11 / RFU, DFFB / Fold change vs veh, DFFB / RFU, FOXP1 / Fold change vs veh, FOXP1 / RFU, CARD8 / Fold change vs veh, CARD8 / RFU, STRN3 / Fold change vs veh, STRN3 / RFU, ADK / Fold change vs veh, ADK / RFU, RASSF2 / Fold change vs veh, RASSF2 / RFU, WIPF1 / Fold change vs veh, WIPF1 / RFU, LARP1B / Fold change vs veh, LARP1B / RFU, RASA1 / Fold change vs veh, RASA1 / RFU, RB1 / Fold change vs veh, RB1 / RFU, PPFIA1 / Fold change vs veh, PPFIA1 / RFU, MAT2A / Fold change vs veh, MAT2A / RFU, CCT5 / Fold change vs veh, CCT5 / RFU, WDR92 / Fold change vs veh, WDR92 / RFU, CUX1 / Fold change vs veh, CUX1 / RFU, TTC7A / Fold change vs veh, TTC7A / RFU, TMEM135 / Fold change vs veh, TMEM135 / RFU, DEPTOR / Fold change vs veh, DEPTOR / RFU, CPM / Fold change vs veh, CPM / RFU, DNAJB6 / Fold change vs veh, DNAJB6 / RFU, CACNA2D3 / Fold change vs veh, CACNA2D3 / RFU, DTX4 / Fold change vs veh, DTX4 / RFU, TFCP2 / Fold change vs veh, TFCP2 / RFU, GMCL1 /// GMCL1P1 / Fold change vs veh, GMCL1 /// GMCL1P1 / RFU, AEBP2 / Fold change vs veh, AEBP2 / RFU, SNHG1 /// SNORD22 /// SNORD25 /// SNORD26 /// SNORD27 /// SNORD28 /// SNORD29 /// SNORD31 / Fold change vs veh, SNHG1 /// SNORD22 /// SNORD25 /// SNORD26 /// SNORD27 /// SNORD28 /// SNORD29 /// SNORD31 / Fold change (Aza/veh), C12orf56 (ProbeSet 11735607_a_at) / Fold change (ACY-1035/veh), C12orf56 (ProbeSet 11735607_a_at) / Fold change (Aza/veh), FGFR1OP (ProbeSet 11751329_s_at) / Fold change (ACY-1035/veh), FGFR1OP (ProbeSet 11751329_s_at) / Fold change (Aza/veh), VPS36 (ProbeSet 11739960_a_at) / Fold change (ACY-1035/veh), VPS36 (ProbeSet 11739960_a_at) / RFU SYPL1 (11715823_x_at) / Fold change /veh SYPL1 (11715823_x_at) / RFU IGFBP7 (11715501_s_at) / Fold change /veh IGFBP7 (11715501_s_at) / RFU REEP3 (11722064_at) / Fold change /veh REEP3 (11722064_at) / RFU IGLL1 (11728026_x_at) / Fold change /veh IGLL1 (11728026_x_at): dose or concentration left out as unconfirmed
Conditions: ProbeSet 11753616_s_at; LIST B

SMILES: Nc1ncn([C@@H]2O[C@H](CO)[C@@H](O)[C@H]2O)c(=O)n1 [azacitidine]
- Fold change vs veh, ARL8B: 0.84
